Measurements published in patent EP4786466A1, “QUINAZOLINE DERIVATIVE, SALT THEREOF, AND PHARMACEUTICAL COMPOSITION COMPRISING SAME AS ACTIVE INGREDIENT” (Korea Research Institute of Chemical Technology, priority 2023, dated 2025).
Where two headings read alike, the source gives them in different places.

Legend:
[1] = biological target: T1, Recombinant GST-TAG-MASTL (Homo sapiens, UniProt Q96GX5); assay: HTRF-based kinase assay (HTRF KinEASE assay kit); type: biochemical; details: for activity at 1 µM: compound 1 µM, read-out: MASTL activity (%) HTRF (1 µM); for IC50: HTRF; for activity at 10 µM: footnote b: concentration 10 µM
T1 construct: GST; purchased Thermo Fisher Scientific
T1 sequence (Q96GX5 1-879): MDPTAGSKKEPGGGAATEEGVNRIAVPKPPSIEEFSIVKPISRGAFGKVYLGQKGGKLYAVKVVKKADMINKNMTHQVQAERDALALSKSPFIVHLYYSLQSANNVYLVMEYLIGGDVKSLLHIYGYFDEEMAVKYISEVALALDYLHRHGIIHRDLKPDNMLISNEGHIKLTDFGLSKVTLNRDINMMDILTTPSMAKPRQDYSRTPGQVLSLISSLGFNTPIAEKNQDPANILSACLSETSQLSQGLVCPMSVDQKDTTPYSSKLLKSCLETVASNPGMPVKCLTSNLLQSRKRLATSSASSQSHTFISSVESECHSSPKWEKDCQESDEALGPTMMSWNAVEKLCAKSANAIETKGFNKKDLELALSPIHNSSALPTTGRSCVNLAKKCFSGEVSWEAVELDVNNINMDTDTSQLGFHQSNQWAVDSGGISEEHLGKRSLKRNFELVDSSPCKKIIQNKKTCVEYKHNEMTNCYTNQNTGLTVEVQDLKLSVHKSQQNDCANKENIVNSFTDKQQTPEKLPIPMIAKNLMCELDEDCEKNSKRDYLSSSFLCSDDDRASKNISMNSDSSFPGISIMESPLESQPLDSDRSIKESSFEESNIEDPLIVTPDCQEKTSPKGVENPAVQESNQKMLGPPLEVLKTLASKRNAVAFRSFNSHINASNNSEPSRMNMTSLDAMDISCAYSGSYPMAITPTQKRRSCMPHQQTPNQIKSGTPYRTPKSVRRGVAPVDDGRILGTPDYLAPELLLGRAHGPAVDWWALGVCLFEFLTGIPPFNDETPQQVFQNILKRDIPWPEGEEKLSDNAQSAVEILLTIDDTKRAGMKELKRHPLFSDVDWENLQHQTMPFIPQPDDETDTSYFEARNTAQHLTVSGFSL
Source text: Recombinant GST-TAG-MASTL (Thermo Fisher Scientific, MA, USA) was used for HTRF-based kinase assays. The HTRF KinEASE assay kit (CisBio, MA, USA) was used according to the manufacturer's instructions.

[2] = system: MCF7 breast cancer cell lines; assay: Cell viability analysis, WST-8 assay, MCF7; details: Homo sapiens, MCF7, 72 h; for viability at 1 µM: read-out: Cell viability (%) WST-8, MCF7 (1 µM), compound 1 µM, 72 hours; for viability at 1.25 µM: read-out: Cell viability (%) WST-8, MCF7, footnote a: concentration 1.25 µM, 72 hours
Method: (§1) MCF7 breast cancer cell lines and MCF10A normal breast cancer cell lines were treated with serial dilutions of the compounds of the present invention ranging from 1 µM to 15.63 nM for 72 hours. Cell viability was measured by the WST-8 assay (Cyto XTM cell viability assay kit; LPS solution, Daejeon, Korea) according to the manufacturer's instructions.

in vitro = details: human, mcf10a cells
Method: as §1

[3] = system: MCF10A normal breast cell lines; assay: Cell viability analysis, WST-8 assay, MCF10A; details: Homo sapiens, MCF-10A, 72 h
Method: as §1

pENSA = pENSA level by immunofluorescence (described method: in vitro kinase analysis with GST-tag-MASTL and His-tag-ENSA); type: cell-based; details: for pENSA (%) Immunofluor ecense (1 µM): compound 1 µM
Outline: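 In vitro kinase reaction using recombinant GST-tagged MASTL with His-tagged ENSA as substrate; phosphorylated ENSA (pENSA) serves as read-out of MASTL activity. Cell lines named: MCF7 breast cancer and MCF10A.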

[4] = read-out: IC50(nM) Cell viability (MCF7)
[5] = read-out: IC50(nM) Cell viability (MCF10A)
[6] = read-out: IC50(nM) MASTL activity
[7] = read-out: IC50 Cell viability (MCF7)
[8] = unit µM, read-out: IC50 MASTL activity
[9] = read-out: MASTL activity (%) HTRF
[10] = read-out: IC50 Cell viability (MCF10A)

| SMILES | activity at 1 µM [1] [%] | viability at 1 µM [2] [%] | IC50 [2, 4] [nM] | viability at 1 µM (in vitro) [%] | IC50 [3, 5] [nM] | pENSA (%) Immunofluor ecense (1 µM) (pENSA) [%] | IC50 [1, 6] [nM] | IC50 [2, 7] [nM] | IC50 (pENSA; read-out: IC50(nM) pENSA) [nM] | IC50 [1, 8] [nM] | activity at 10 µM [1, 9] [%] | viability at 1.25 µM [2] [%] | viability at 1.25 µM (in vitro) [%] | IC50 [3, 10] [nM] | IC50 (pENSA; unit µM, read-out: IC50 pENSA) [nM] | activity at 1.25 µM ([1]; footnote a: concentration 1.25 µM, read-out: MASTL activity (%) HTRF) [%] |
| --- | --- | --- | --- | --- | --- | --- | --- | --- | --- | --- | --- | --- | --- | --- | --- | --- |
| Cc1cc(Cl)ccc1C1=CCN(c2nc(Nc3cc(C4CC4)[nH]n3)c3ccccc3n2)CC1 [compound 6l, 2-(4-(4-chloro-2-methylphenyl)-3,6-dihydropyridin-1(2G)-yl)-M-(5-cyclopropyl-1G-pyrazol-3-yl)quinazolin-4-amine] | 76.1 | 47.8 | 484 | 15.2 | 332 | 101 |  |  |  |  |  |  |  |  |  |  |
| CC(C)C(=O)N1CC=C(c2nc(Nc3cc(C4CC4)[nH]n3)c3ccccc3n2)CC1 [compound 9b, 1-(4-(4-((5-cyclopropyl-1G-pyrazol-3-yl)amino)quinazolin-2-yl)-3,6-dihydropyridin-1(2G)-yl)-2-methylpropan-1-one] | 21.7 | 52.5 |  | 12.3 | 316 | 34.6 | 136 | 1000 | 832 |  |  |  |  |  |  |  |
| c1ccc2c(Nc3cc(C4CC4)[nH]n3)nc(N3CCNCC3)nc2c1 [compound 11, M-(5-cyclopropyl-1G-pyrazol-3-yl)-2-(piperazin-1-yl)quinazolin-4-amine] |  |  |  |  |  | 66.4 |  | 3200 |  | 1000 | 18.1 | 104 | 98 | 4100 |  |  |
| CN1CCN(c2nc(Nc3cc(C4CC4)[nH]n3)c3ccccc3n2)CC1 [compound 12a, M-(5-cyclopropyl-1G-pyrazol-3-yl)-2-(4-methylpiperazin-1-yl)quinazolin-4-amine] |  |  | 697 |  |  | 63.8 |  |  |  |  | 26.3 | 26.2 | 82.3 | 2400 | 1100 |  |
| OCCN1CCN(c2nc(Nc3cc(C4CC4)[nH]n3)c3ccccc3n2)CC1 [compound 12b, 2-(4-(4-((5-cyclopropyl-1G-pyrazol-3-yl)amino)quinazolin-2-yl)piperazin-1-yl)ethan-1-ol] |  |  |  |  | 2600 | 41.7 | 807 | 1500 | 852 |  | 17.7 | 69.4 | 123 |  |  |  |
| CCNC(=O)N1CCN(c2nc(Nc3cc(C4CC4)[nH]n3)c3ccccc3n2)CC1 [compound 12c, 4-(4-((5-cyclopropyl-1G-pyrazol-3-yl)amino)quinazolin-2-yl)-M-ethylpiperazine-1-carboxamide] |  |  |  |  |  | 75.8 |  |  |  |  | 45.7 | 107 | 61.3 | 1400 |  |  |
| O=C(Nc1ccc(F)cc1)N1CCN(c2nc(Nc3cc(C4CC4)[nH]n3)c3ccccc3n2)CC1 [compound 12d, 4-(4-((5-cyclopropyl-1G-pyrazol-3-yl)amino)quinazolin-2-yl)-M-(4-fluorophenyl)piperazine-1-carboxamide] |  |  |  |  |  | 46.3 | 832 | 1500 | 571 |  | 14.1 | 55.8 | 63.7 | 1500 |  |  |
| CC(C)(C)OC(=O)N1CC2CC1CN2c1nc(Nc2cc(C3CC3)[nH]n2)c2ccccc2n1 (centres unmarked) [compound 13, sdqs-butyl 5-(4-((5-cyclopropyl-1G-pyrazol-3-yl)amino)quinazolin-2-yl)-2,5-diazabicyclo[2.2.1]heptane-2-carboxylate] |  |  | 932 |  | 316 | 90 |  |  |  | 1000 |  | 62 | 15.9 |  |  | 53.8 |
